Experiment: mn = molality of the nth substance listed, in mol/kg
Details: 84.5 kPa, Liquid; for speed of sound: Single path-length method; for mass density: Vibrating tube method

CCCCn1cc[n+](C)c1.O=S(=O)([O-])C(F)(F)F [1-butyl-3-methylimidazolium trifluoromethanesulfonate] + O
Details | mass density, 288.15 K [kg/m3] | mass density, 298.15 K [kg/m3] | mass density, 308.15 K [kg/m3] | mass density, 318.15 K [kg/m3] | speed of sound, 288.15 K [m/s] | speed of sound, 298.15 K [m/s] | speed of sound, 308.15 K [m/s] | speed of sound, 318.15 K [m/s]
m1 = 0.0164 | 1000.27 | 998.176 | 995.134 | 991.289 | 1468.7 | 1498.5 | 1521.1 | 1537.4
m1 = 0.0259 | 1000.93 | 998.823 | 995.765 | 991.906 | 1469.8 | 1499.4 | 1521.8 | 1537.9
m1 = 0.042 | 1002.06 | 999.922 | 996.836 | 992.952 | 1471.8 | 1501 | 1523 | 1538.8
m1 = 0.0699 | 1003.99 | 1001.79 | 998.662 | 994.732 | 1475 | 1503.5 | 1524.8 | 1540
m1 = 0.1072 | 1006.54 | 1004.28 | 1001.08 | 997.093 | 1479.2 | 1506.6 | 1527.2 | 1541.7
m1 = 0.1455 | 1009.12 | 1006.78 | 1003.52 | 999.47 | 1483.8 | 1510.2 | 1529.8 | 1543.6
m1 = 0.3021 | 1019.31 | 1016.66 | 1013.11 | 1008.81 | 1499.6 | 1522.1 | 1538.4 | 1549.2
m1 = 0.4645 | 1029.21 | 1026.22 | 1022.39 | 1017.83 | 1513.4 | 1532.3 | 1545.4 | 1553.4
m1 = 0.6651 | 1040.6 | 1037.21 | 1033.03 | 1028.16 | 1526.7 | 1541.5 | 1551.1 | 1556.2
m1 = 0.8671 | 1051.21 | 1047.44 | 1042.94 | 1037.8 | 1535.6 | 1546.9 | 1553.8 | 1556.5

CCCCCCn1cc[n+](C)c1.[Cl-] [1-hexyl-3-methylimidazolium chloride] + O
Details | mass density, 288.15 K [kg/m3] | mass density, 298.15 K [kg/m3] | mass density, 308.15 K [kg/m3] | mass density, 318.15 K [kg/m3] | speed of sound, 288.15 K [m/s] | speed of sound, 298.15 K [m/s] | speed of sound, 308.15 K [m/s] | speed of sound, 318.15 K [m/s]
m1 = 0.0096 | 999.203 | 997.128 | 994.101 | 990.268 | 1468.2 | 1498.2 | 1521.1 | 1537.6
m1 = 0.0296 | 999.412 | 997.304 | 994.252 | 990.4 | 1471.7 | 1501.3 | 1523.7 | 1539.8
m1 = 0.0585 | 999.713 | 997.562 | 994.471 | 990.58 | 1476.8 | 1505.7 | 1527.4 | 1543
m1 = 0.0734 | 999.867 | 997.692 | 994.583 | 990.681 | 1479.4 | 1507.9 | 1529.3 | 1544.6
m1 = 0.0999 | 1000.15 | 997.932 | 994.787 | 990.859 | 1483.9 | 1511.7 | 1532.6 | 1547.3
m1 = 0.1212 | 1000.37 | 998.125 | 994.95 | 990.996 | 1487.4 | 1514.8 | 1535.2 | 1549.6
m1 = 0.1542 | 1000.73 | 998.421 | 995.204 | 991.215 | 1493 | 1519.5 | 1539.2 | 1553
m1 = 0.2244 | 1001.47 | 999.058 | 995.748 | 991.681 | 1504 | 1528.9 | 1547.3 | 1559.8
m1 = 0.2863 | 1002.12 | 999.62 | 996.227 | 992.089 | 1513.8 | 1537.3 | 1554.3 | 1565.8
m1 = 0.469 | 1004.08 | 1001.27 | 997.628 | 993.281 | 1540.2 | 1559.7 | 1573.2 | 1581.6
m1 = 0.8901 | 1008.38 | 1004.89 | 1000.7 | 995.899 | 1591.4 | 1602.4 | 1608.7 | 1610.9
